Source: patent publication EP1179538A1, “PEPTIDES BLOCKING RESPONSE TO CHEMICAL SUBSTANCES OR THERMAL STIMULI OR NOCICEPTOR INFLAMMATION MEDIATORS AND COMPOSITIONS CONTAINING SAID PEPTIDES” (Universidad Miguel Hernandez de Elche, priority 1999, dated 2002)
Peptide text beside a SMILES is read from it.

Target: VR1 nocireceptor
Assay: Blockage of capsaicin-activated ionic current in X. laevis ovocites expressing the VR1 nocireceptor (two-microelectrode voltage clamp)
Format: cell-based
Details: VR1 expressed in X. laevis ovocites; activated by capsaicin 20 µM; transmembrane voltage -80 mV; read-out: peptide concentrations that inhibited half of the VR1 response (IC50)
Excerpt: This test comprises contacting X. laevi ovocites expressing the VR1 nocireceptor with an agonist (ligand) for said VR1 nocireceptor, for example, capsaicin, in the presence or absence of the compound to be tested, maintaining the transmembrane voltage constant at -80 mV, and detecting the inhibiting activity of said compound to be tested by measuring the agonist-activated ionic current in the presence and absence of the compound to be tested. The power and effectiveness of the inhibiting activity of the compound to be tested can be determined by obtaining the dosage-response curves. To achieve this, the magnitude of the capsaicin-activated ionic current blockage is examined in X. laevi ovocites that express the VR1 nocireceptor in the presence of the growing concentrations of the compound to be tested. The ratio of ionic current intensities in the presence and absence of the compound to be tested permits the obtention of dosage-response curves (19,20). These graphs can be adjusted to logarithmic functions to determine the maximum blockage (power) and the antagonist concentration produced by half the maximum blockage (IC50 effective).
In order to evaluate the biological activity of peptides obtained in Example 1.1 a test was developed to evaluate the power of said peptides blocking the agonist-activated ionic current in X. laevis ovocites that express the VR1 nocireceptor.
The heterologous expression of receptors in X. laevis ovocites can be carried out according to the procedure described by Ferrer-Montiel and Montal (19). […] The capsaicin agonist-activated ionic currents are recorded with the maintenance of the constant voltage technique with two microelectrodes (two-microelectrode voltage clamp) (19, 20). […] The inhibiting activity is detected by measuring the agonist -activated ionic current in the presence and absence of the peptides.
The power and effectiveness of the peptide inhibiting activity is determined by means of the obtention of dosage-response curves. […]

Compound | IC50
N=C(N)NCCC[C@H](NC(=O)[C@H](CCCNC(=N)N)NC(=O)[C@H](CCCNC(=N)N)NC(=O)[C@@H](N)CCCNC(=N)N)C(=O)N[C@@H](Cc1c[nH]c2ccccc12)C(=O)N[C@@H](Cc1c[nH]c2ccccc12)C(=O)O [SEC. ID. N1: 1, Arg-Arg-Arg-Arg-Trp-Trp] (H-RRRRWW-OH) | ~100 nM
CC[C@H](C)[C@H](NC(=O)[C@H](Cc1c[nH]c2ccccc12)NC(=O)[C@H](Cc1c[nH]c2ccccc12)NC(=O)[C@H](CCCNC(=N)N)NC(=O)[C@@H](N)CCCNC(=N)N)C(=O)N[C@@H](CCCNC(=N)N)C(=O)O [SEC. ID. N1: 2, Arg-Arg-Trp-Trp-Ile-Arg] (H-RRWWIR-OH) | ~2000 nM
N=C(N)NCCC[C@H](NC(=O)[C@H](CCCNC(=N)N)NC(=O)[C@H](Cc1ccc(O)cc1)NC(=O)[C@H](Cc1ccc(O)cc1)NC(=O)[C@@H](N)CCCNC(=N)N)C(=O)N[C@@H](Cc1c[nH]c2ccccc12)C(=O)O [SEC. ID. N1: 3, Arg-Tyr-Tyr-Arg-Arg-Trp] (H-RYYRRW-OH) | ~10000 nM
